{
  "source": "patent US7910593B2",
  "about": "“Water-soluble prodrugs” (Chugai Seiyaku Kabushiki Kaisha, priority 2004, dated 2011)",
  "key": {"[1]": {"assay": "Test Example 2: stability at various pH values in buffers", "type": "physicochemical", "settings": "for Percent remaining: 25 μM, 25° C.", "method": "The stability of compound 2A at various pH values was determined. The present compound was placed in buffers of various pHs at a concentration of 25 μM. After incubation at 25° C. for 0, 3, and 6 hours, the compound was analyzed by HPLC.\nThe buffers used at each pH are shown below. • pH2.0: 50 mM HCl-KCl buffer • pH3.0: 50 mM citrate buffer • pH4.0: 50 mM citrate buffer • pH5.0: 50 mM succinate buffer • pH6.5: 50 mM phosphate buffer • pH7.4: 50 mM phosphate buffer\nConditions for HPLC analysis are as follows: • HPLC conditions • Column: Develosil C30-UG-3, 3 μm, 50×4.6 mm I.D • Column Temperature: constant temperature at approximately 25° C. • Mobile phase: A: 10 mM phosphate buffer (pH4.7) • B: acetonitrile • (min): 90/10(0)→90/10(0.4)→40/60(6)→2/98(8)→90/10(9)→90/10(15) • Flow rate: 1.0 mL/min • Detection: photodiode array detector, detection wavelength 350 nm • Amount injected: 30 μL"}, "[2]": {"assay": "Test Example 5: conversion of compound 2A into activated form in monkey sera", "type": "in vitro ADME", "settings": "for compound 2A (measured values, %): Test Example 5, monkey sera, 50 μM, 37° C.", "method": "The percentages of compound 2A produced in Example 2 being converted into an activated form in sera of humans, rats, mice, monkeys, and dogs were determined. The activated form is in a rapid equilibrium between the lactone form and the carboxylate form, which were quantified separately.\nCompound 2A was incubated at 37° C. at a concentration of 50 μM in sera of humans, mice, rats, monkeys, and dogs. Incubation was terminated at a given time (0, 30, 60, 120, and 360 minutes), and the samples were analyzed by HPLC after deproteinization treatments.\nConditions for the HPLC analysis are as follows: • HPLC conditions • Column: Develosil C30-UG-3, 3 μm, 35×4.6 mm I.D • Column Temperature: constant temperature at approximately 25° C. • Mobile phase: A: 10 mM phosphate buffer (pH4.7) • B: acetonitrile • /B (min): 90/10(0)→90/10(0.4)→40/60(6)→2/98(8)→90/10(9)→90/10(15) • Flow rate: 1.0 mL/min • Detection: photodiode array detector, detection wavelength 350 nm • Amount injected: 30 μL\nGenerally, camptothecins in solution are in a rapid equilibrium between a structure in which the carbonyl at position 3 forms a 6-membered cyclic ester with the oxygen at position 2, and its open-ring structure. The lactone form refers to the former condition and the carboxylate form refers to the latter condition."}},
  "data": [
    {"smiles": "CCCCCN1C=Nc2cccc3nc4c(c1c23)Cn1c-4cc2c(c1=O)COC(=O)[C@@]2(CC)OC(=O)CN(C)C(=O)CN.Cl", "note": "[Compound 2A, (9S)-9-Ethyl-9-(glycyl-sarcosyloxy)-1-pentyl-1H,12H-pyrano[3″,4″:6′,7′]indolizino[1′,2′:6,5]pyrido[4,3,2-de]quinazoline-10,13(9H,15H)-dione hydrochloride]", "values": [
      {"measurement": "Percent remaining", "setting": "[1]; pH 2.0, 50 mM HCl-KCl buffer, 0 hr", "result": 100, "unit": "%"},
      {"measurement": "Percent remaining", "setting": "[1]; pH 2.0, 50 mM HCl-KCl buffer, 3 hr", "result": 101.6, "unit": "%"},
      {"measurement": "Percent remaining", "setting": "[1]; pH 2.0, 50 mM HCl-KCl buffer, 6 hr", "result": 101.1, "unit": "%"},
      {"measurement": "Percent remaining", "setting": "[1]; pH 3.0, 50 mM citrate buffer, 0 hr", "result": 100, "unit": "%"},
      {"measurement": "Percent remaining", "setting": "[1]; pH 3.0, 50 mM citrate buffer, 3 hr", "result": 100.3, "unit": "%"},
      {"measurement": "Percent remaining", "setting": "[1]; pH 3.0, 50 mM citrate buffer, 6 hr", "result": 101.1, "unit": "%"},
      {"measurement": "Percent remaining", "setting": "[1]; pH 4.0, 50 mM citrate buffer, 0 hr", "result": 100, "unit": "%"},
      {"measurement": "Percent remaining", "setting": "[1]; pH 4.0, 50 mM citrate buffer, 3 hr", "result": 98.2, "unit": "%"},
      {"measurement": "Percent remaining", "setting": "[1]; pH 4.0, 50 mM citrate buffer, 6 hr", "result": 96.1, "unit": "%"},
      {"measurement": "Percent remaining", "setting": "[1]; pH 5.0, 50 mM succinate buffer, 0 hr", "result": 100, "unit": "%"},
      {"measurement": "Percent remaining", "setting": "[1]; pH 5.0, 50 mM succinate buffer, 3 hr", "result": 76.6, "unit": "%"},
      {"measurement": "Percent remaining", "setting": "[1]; pH 5.0, 50 mM succinate buffer, 6 hr", "result": 58.7, "unit": "%"},
      {"measurement": "Percent remaining", "setting": "[1]; pH 6.5, 50 mM phosphate buffer, 0 hr", "result": 100, "unit": "%"},
      {"measurement": "Percent remaining", "setting": "[1]; pH 6.5, 50 mM phosphate buffer, 3 hr", "result": 0, "unit": "%"},
      {"measurement": "Percent remaining", "setting": "[1]; pH 6.5, 50 mM phosphate buffer, 6 hr", "result": 0, "unit": "%"},
      {"measurement": "Percent remaining", "setting": "[1]; pH 7.4, 50 mM phosphate buffer, 0 hr", "result": 100, "unit": "%"},
      {"measurement": "Percent remaining", "setting": "[1]; pH 7.4, 50 mM phosphate buffer, 3 hr", "result": 0, "unit": "%"},
      {"measurement": "Percent remaining", "setting": "[1]; pH 7.4, 50 mM phosphate buffer, 6 hr", "result": 0, "unit": "%"},
      {"measurement": "stability (in words)", "setting": "[1]; up to pH3", "result": "stable"},
      {"measurement": "compound 2A (measured values, %)", "setting": "[2]; incubation 0 minutes", "result": 0, "unit": "%"},
      {"measurement": "compound 2A (measured values, %)", "setting": "[2]; incubation 30 minutes", "result": 0, "unit": "%"},
      {"measurement": "compound 2A (measured values, %)", "setting": "[2]; incubation 60 minutes", "result": 0, "unit": "%"},
      {"measurement": "compound 2A (measured values, %)", "setting": "[2]; incubation 120 minutes", "result": 0, "unit": "%"},
      {"measurement": "compound 2A (measured values, %)", "setting": "[2]; incubation 360 minutes", "result": 0, "unit": "%"},
      {"measurement": "conversion to the lactone form (in words)", "setting": "[2]; monkey sera, Test Example 5", "result": "quickly converted to the lactone form"}
    ]}
  ]
}
